# Results reported in PubChem BioAssay (NCI).
#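 Results reflect a 48-hour exposure of cells in 96-well plates to compound at five concentrations. The concentration for full growth arrest is given as TGI.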
# Key:
# Assay in all cases: NCI-60 cell line screen, 48 h
# [1] = system: 786-0 renal
# [2] = system: A549 NSCLC
# [3] = system: ACHN renal
# [4] = system: BT-549 breast
# [5] = system: CAKI-1 renal
# [6] = system: CCRF-CEM leukemia
# [7] = system: COLO 205 colon
# [8] = system: DU-145 prostate
# [9] = system: EKVX NSCLC
# [10] = system: HCC-2998 colon
# [11] = system: HCT-116 colon
# [12] = system: HCT-15 colon
# [13] = system: HL-60(TB) leukemia
# [14] = system: HOP-62 NSCLC
# [15] = system: HT29 colon
# [16] = system: IGROV1 ovarian
# [17] = system: K-562 leukemia
# [18] = system: M14 melanoma
# [19] = system: MALME-3M melanoma
# [20] = system: MCF7 breast
# [21] = system: MDA-N
# [22] = system: MOLT-4 leukemia
# [23] = system: NCI-H226 lung
# [24] = system: NCI-H23 lung
# [25] = system: NCI-H460 lung
# [26] = system: NCI-H522 lung
# [27] = system: NCI/ADR-RES ovarian
# [28] = system: OVCAR-3 ovarian
# [29] = system: OVCAR-4 ovarian
# [30] = system: OVCAR-5 ovarian
# [31] = system: OVCAR-8 ovarian
# [32] = system: PC-3 prostate
# [33] = system: RPMI-8226 leukemia
# [34] = system: RXF 393 renal
# [35] = system: SF-268 CNS
# [36] = system: SF-295 CNS
# [37] = system: SF-539 CNS
# [38] = system: SK-MEL-28 melanoma
# [39] = system: SK-MEL-5 melanoma
# [40] = system: SK-OV-3 ovarian
# [41] = system: SN12C renal
# [42] = system: SNB-19 CNS
# [43] = system: SNB-75 CNS
# [44] = system: SR leukemia
# [45] = system: SW-620 colon
# [46] = system: TK-10 renal
# [47] = system: U251 CNS
# [48] = system: UACC-257 melanoma
# [49] = system: UACC-62 melanoma
# [50] = system: UO-31 renal
# [51] = system: A498 renal
# [52] = system: HS 578T breast
# [53] = system: KM12 colon
# [54] = system: LOX IMVI melanoma
# [55] = system: MDA-MB-231 breast
# [56] = system: MDA-MB-435
# [57] = system: SK-MEL-2 melanoma
# [58] = system: T-47D breast
smiles,measurement,setting,value
COC(CCC[N+](C)(C)C)CC[N+](C)(C)C (configuration not stated),TGI,[1],> 100 µM
same,TGI,[2],> 100 µM
same,TGI,[3],> 100 µM
same,TGI,[4],> 100 µM
same,TGI,[5],> 100 µM
same,TGI,[6],> 100 µM
same,TGI,[7],> 100 µM
same,TGI,[8],> 100 µM
same,TGI,[9],> 100 µM
same,TGI,[10],> 100 µM
same,TGI,[11],> 100 µM
same,TGI,[12],> 100 µM
same,TGI,[13],> 100 µM
same,TGI,[14],> 100 µM
same,TGI,[15],> 100 µM
same,TGI,[16],> 100 µM
same,TGI,[17],> 100 µM
same,TGI,[18],> 100 µM
same,TGI,[19],> 100 µM
same,TGI,[20],> 100 µM
same,TGI,[21],> 100 µM
same,TGI,[22],> 100 µM
same,TGI,[23],> 100 µM
same,TGI,[24],> 100 µM
same,TGI,[25],> 100 µM
same,TGI,[26],> 100 µM
same,TGI,[27],> 100 µM
same,TGI,[28],> 100 µM
same,TGI,[29],> 100 µM
same,TGI,[30],> 100 µM
same,TGI,[31],> 100 µM
same,TGI,[32],> 100 µM
same,TGI,[33],> 100 µM
same,TGI,[34],> 100 µM
same,TGI,[35],> 100 µM
same,TGI,[36],> 100 µM
same,TGI,[37],> 100 µM
same,TGI,[38],> 100 µM
same,TGI,[39],> 100 µM
same,TGI,[40],> 100 µM
same,TGI,[41],> 100 µM
same,TGI,[42],> 100 µM
same,TGI,[43],> 100 µM
same,TGI,[44],> 100 µM
same,TGI,[45],> 100 µM
same,TGI,[46],> 100 µM
same,TGI,[47],> 100 µM
same,TGI,[48],> 100 µM
same,TGI,[49],> 100 µM
same,TGI,[50],> 100 µM
Cc1ccc(Cl)c2[nH]c(-c3ccccc3)cc(=O)c12,TGI,[1],> 100 µM
same,TGI,[51],> 100 µM
same,TGI,[2],72 µM
same,TGI,[3],98.4 µM
same,TGI,[6],> 100 µM
same,TGI,[7],> 100 µM
same,TGI,[8],> 100 µM
same,TGI,[9],45 µM
same,TGI,[10],> 100 µM
same,TGI,[11],> 100 µM
same,TGI,[12],> 100 µM
same,TGI,[13],> 100 µM
same,TGI,[14],> 100 µM
same,TGI,[52],> 100 µM
same,TGI,[15],> 100 µM
same,TGI,[16],> 100 µM
same,TGI,[17],> 100 µM
same,TGI,[53],> 100 µM
same,TGI,[54],> 100 µM
same,TGI,[18],> 100 µM
same,TGI,[19],> 100 µM
same,TGI,[20],34.6 µM
same,TGI,[55],> 100 µM
same,TGI,[56],> 100 µM
same,TGI,[21],> 100 µM
same,TGI,[22],> 100 µM
same,TGI,[23],> 100 µM
same,TGI,[24],> 100 µM
same,TGI,[25],> 100 µM
same,TGI,[26],> 100 µM
same,TGI,[27],> 100 µM
same,TGI,[28],> 100 µM
same,TGI,[29],> 100 µM
same,TGI,[30],> 100 µM
same,TGI,[31],> 100 µM
same,TGI,[32],> 100 µM
same,TGI,[33],> 100 µM
same,TGI,[34],> 100 µM
same,TGI,[35],79.7 µM
same,TGI,[36],> 100 µM
same,TGI,[57],> 100 µM
same,TGI,[38],> 100 µM
same,TGI,[39],> 100 µM
same,TGI,[40],> 100 µM
same,TGI,[41],> 100 µM
same,TGI,[43],> 100 µM
same,TGI,[45],> 100 µM
same,TGI,[58],> 100 µM
same,TGI,[46],> 100 µM
same,TGI,[47],> 100 µM
same,TGI,[48],> 100 µM
same,TGI,[49],> 100 µM
